Results published in patent publication US20240278014A1, “METHODS AND PHARMACEUTICAL FORMULATIONS FOR MODULATING THE PROPERTIES OF THE BLOOD LABYRINTH BARRIER” (Cochlear Limited, priority 2021, published 2024).

Assays:
[1] = guinea pig, in vivo, iv
Description: Fluorescein (20 mM) was administered through a cannula in the jugular vein by continuous intravenous (IV) injection at a rate of 20 μL/minute. […] Implants were placed through a cochleostomy into the basal turn of the scala tympani. Perilymph sampling began two hours after IV infusion began, and the concentration of fluorescein in the perilymph was used as a proxy for BLB permeability. Sampling in the perilymph was accomplished as follows: The cochlear apex was prepared for fluid sampling by building a hydrophobic cup of silicone adhesive around it. When the apex was perforated, the emerging fluid collected in the cup without loss into the middle ear. Ten samples were collected in sequence, with each taking 60 to 90 seconds. […] Fluorescein concentrations were compared for implanted versus non-implanted […], and from ears of non-implanted control animals.

[2] = Perilymph fluorescein as proxy for BLB permeability after cochlear implantation; format: in vivo, guinea pigs; conditions: on average; same animal; perilymph sampled two hours after start of IV infusion
Source text: In some embodiments, methods for assessing a more permeable than normal blood labyrinth barrier (but not treating it or preventing it from becoming more permeable) involve injecting a pharmaceutical formulation functioning as a marker into the blood stream of a recipient, measuring the amount of formulation in the perilymph as a function of time. As the barrier becomes more permeable after implantation, the formulation may be detected in greater quantities in the perilymph. In this type of experiment, the data may be normalized to the contralateral ear (without an implant), which allows data to be collected from a single subject serving as its own “control.”
We measured the time course of BLB compromise following cochlear implantation in guinea pigs to characterize the development of increasing BLB permeability relating to the BLB disruption that surgical implantation causes.
Seven days following cochlear implantation, the perilymph was sampled at 126 minutes (non-implanted) and 127 minutes (implanted) after the start of IV fluorescein infusion began (shown in solid symbols). Open symbols show the same data corrected to a sample time beginning at 120 minutes after the start of the infusion, assuming a linear rate of entry through the BLB over time. […] Each sample time represents the mean of samples 1-6 from one ear; lines represent the group (n=5) mean. […]

[3] = in vivo; cited from earlier work

Row | elimination half time [1] | volume of calculated time course [1] | BLB permeability increase (perilymph fluorescein, implanted versus nonimplanted ear) [2] | Compound | effect on BLB [3]
1 | 11 min | 183 mL | two- to three-fold | O=C1OC2(c3ccc(O)cc3Oc3cc(O)ccc32)c2ccccc21 [Fluorescein] | 
2 |  |  |  | lipopolysaccharide [LPS] | induce systemic inflammation, compromising the BLB
